Source: PubChem BioAssay (NCI)
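Five concentrations, 48 hours, 96-well plates. TGI: total growth inhibition.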

How the values were obtained:
Assay in all cases: NCI tumour cell line growth inhibition, 48 h
[1] = tested on: 786-0 renal
[2] = tested on: A498 renal
[3] = tested on: A549 NSCLC
[4] = tested on: ACHN renal
[5] = tested on: CAKI-1 renal
[6] = tested on: CCRF-CEM leukemia
[7] = tested on: COLO 205 colon
[8] = tested on: DLD-1 colon
[9] = tested on: DMS 114 small cell lung
[10] = tested on: DMS 273 small cell lung
[11] = tested on: EKVX NSCLC
[12] = tested on: HCC-2998 colon
[13] = tested on: HCT-116 colon
[14] = tested on: HCT-15 colon
[15] = tested on: HL-60(TB) leukemia
[16] = tested on: HOP-18 NSCLC
[17] = tested on: HOP-62 NSCLC
[18] = tested on: HT29 colon
[19] = tested on: IGROV1 ovarian
[20] = tested on: K-562 leukemia
[21] = tested on: KM12 colon
[22] = tested on: LOX IMVI melanoma
[23] = tested on: LXFL 529 NSCLC
[24] = tested on: M19-MEL melanoma
[25] = tested on: MALME-3M melanoma
[26] = tested on: MOLT-4 leukemia
[27] = tested on: NCI-H226 lung
[28] = tested on: NCI-H23 lung
[29] = tested on: NCI-H460 lung
[30] = tested on: NCI-H522 lung
[31] = tested on: OVCAR-3 ovarian
[32] = tested on: OVCAR-4 ovarian
[33] = tested on: OVCAR-5 ovarian
[34] = tested on: OVCAR-8 ovarian
[35] = tested on: RPMI-8226 leukemia
[36] = tested on: RXF-631 renal
[37] = tested on: SF-268 CNS
[38] = tested on: SF-539 CNS
[39] = tested on: SK-MEL-2 melanoma
[40] = tested on: SK-MEL-28 melanoma
[41] = tested on: SK-MEL-5 melanoma
[42] = tested on: SK-OV-3 ovarian
[43] = tested on: SN12C renal
[44] = tested on: SNB-19 CNS
[45] = tested on: SNB-75 CNS
[46] = tested on: SW-620 colon
[47] = tested on: TK-10 renal
[48] = tested on: U251 CNS
[49] = tested on: UACC-257 melanoma
[50] = tested on: UACC-62 melanoma
[51] = tested on: UO-31 renal
[52] = tested on: XF 498 CNS
[53] = tested on: HOP-92 NSCLC
[54] = tested on: KM20L2 colon
[55] = tested on: M14 melanoma
[56] = tested on: RXF 393 renal
[57] = tested on: SF-295 CNS
[58] = tested on: SR leukemia
[59] = tested on: SNB-78 CNS

S=P1(Oc2ccccc2)NNP2(=NP(N3CC3)(N3CC3)=NP(N3CC3)(N3CC3)=N2)NN1 (stereo unspecified)
TGI [1]: > 100 µM
TGI [2]: > 100 µM
TGI [3]: > 100 µM
TGI [4]: > 100 µM
TGI [5]: > 100 µM
TGI [6]: > 100 µM
TGI [7]: > 100 µM
TGI [8]: > 100 µM
TGI [9]: > 100 µM
TGI [10]: > 100 µM
TGI [11]: > 100 µM
TGI [12]: > 100 µM
TGI [13]: > 100 µM
TGI [14]: > 100 µM
TGI [15]: > 100 µM
TGI [16]: > 100 µM
TGI [17]: > 100 µM
TGI [18]: > 100 µM
TGI [19]: > 100 µM
TGI [20]: > 100 µM
TGI [21]: > 100 µM
TGI [22]: > 100 µM
TGI [23]: > 100 µM
TGI [24]: > 100 µM
TGI [25]: > 100 µM
TGI [26]: > 100 µM
TGI [27]: > 100 µM
TGI [28]: > 100 µM
TGI [29]: > 100 µM
TGI [30]: > 100 µM
TGI [31]: > 100 µM
TGI [32]: > 100 µM
TGI [33]: > 100 µM
TGI [34]: > 100 µM
TGI [35]: > 100 µM
TGI [36]: > 100 µM
TGI [37]: > 100 µM
TGI [38]: > 100 µM
TGI [39]: > 100 µM
TGI [40]: > 100 µM
TGI [41]: > 100 µM
TGI [42]: > 100 µM
TGI [43]: > 100 µM
TGI [44]: > 100 µM
TGI [45]: > 100 µM
TGI [46]: > 100 µM
TGI [47]: > 100 µM
TGI [48]: > 100 µM
TGI [49]: > 100 µM
TGI [50]: > 100 µM
TGI [51]: > 100 µM
TGI [52]: > 100 µM

CN(C)C(=S)/N=c1\ssc(=S)n1C1CCCCC1
TGI [1]: 31.6 µM
TGI [2]: > 100 µM
TGI [3]: > 100 µM
TGI [4]: > 100 µM
TGI [5]: 90.6 µM
TGI [6]: 46.1 µM
TGI [8]: 58.2 µM
TGI [9]: 50.5 µM
TGI [10]: > 100 µM
TGI [11]: > 100 µM
TGI [12]: > 100 µM
TGI [13]: 32.3 µM
TGI [14]: > 100 µM
TGI [15]: 32.5 µM
TGI [16]: > 100 µM
TGI [17]: > 100 µM
TGI [53]: 96.6 µM
TGI [18]: > 100 µM
TGI [19]: > 100 µM
TGI [20]: 52.6 µM
TGI [21]: > 100 µM
TGI [54]: > 100 µM
TGI [23]: 75.6 µM
TGI [55]: 36.3 µM
TGI [24]: > 100 µM
TGI [25]: 64.8 µM
TGI [26]: 52.3 µM
TGI [27]: > 100 µM
TGI [28]: > 100 µM
TGI [29]: > 100 µM
TGI [30]: 37.4 µM
TGI [32]: > 100 µM
TGI [33]: > 100 µM
TGI [34]: 53.9 µM
TGI [56]: > 100 µM
TGI [36]: 40.8 µM
TGI [37]: > 100 µM
TGI [57]: > 100 µM
TGI [38]: 48.3 µM
TGI [39]: > 100 µM
TGI [40]: > 100 µM
TGI [41]: 73.2 µM
TGI [42]: > 100 µM
TGI [43]: > 100 µM
TGI [44]: > 100 µM
TGI [45]: > 100 µM
TGI [58]: 63.1 µM
TGI [46]: 28.4 µM
TGI [47]: > 100 µM
TGI [48]: 37.9 µM
TGI [49]: 64.9 µM
TGI [50]: 34.2 µM
TGI [51]: > 100 µM
TGI [52]: 59.3 µM

CC(=O)OCCOCNC(=S)N/N=C/c1ccc([N+](=O)[O-])o1
TGI [1]: > 100 µM
TGI [2]: > 100 µM
TGI [3]: > 100 µM
TGI [4]: > 100 µM
TGI [6]: > 100 µM
TGI [7]: 42.9 µM
TGI [8]: > 100 µM
TGI [9]: 43.1 µM
TGI [10]: > 100 µM
TGI [11]: > 100 µM
TGI [12]: > 100 µM
TGI [13]: > 100 µM
TGI [14]: > 100 µM
TGI [15]: 39.2 µM
TGI [16]: > 100 µM
TGI [17]: > 100 µM
TGI [18]: > 100 µM
TGI [19]: > 100 µM
TGI [20]: > 100 µM
TGI [21]: > 100 µM
TGI [54]: > 100 µM
TGI [22]: > 100 µM
TGI [23]: > 100 µM
TGI [55]: > 100 µM
TGI [24]: 31 µM
TGI [25]: > 100 µM
TGI [27]: > 100 µM
TGI [28]: > 100 µM
TGI [29]: > 100 µM
TGI [30]: > 100 µM
TGI [31]: > 100 µM
TGI [32]: > 100 µM
TGI [33]: > 100 µM
TGI [34]: > 100 µM
TGI [56]: > 100 µM
TGI [36]: > 100 µM
TGI [37]: > 100 µM
TGI [57]: > 100 µM
TGI [38]: > 100 µM
TGI [39]: > 100 µM
TGI [40]: > 100 µM
TGI [41]: > 100 µM
TGI [42]: > 100 µM
TGI [43]: > 100 µM
TGI [44]: > 100 µM
TGI [45]: > 100 µM
TGI [59]: > 100 µM
TGI [46]: > 100 µM
TGI [47]: > 100 µM
TGI [48]: > 100 µM
TGI [49]: > 100 µM
TGI [50]: > 100 µM
TGI [51]: > 100 µM
TGI [52]: > 100 µM

O=C(Nc1nc(=S)[nH][nH]1)C(=O)C(C(=O)c1ccc2ccccc2c1)C1OC(=O)c2ccccc21 (stereo unspecified)
TGI [1]: 49.5 µM
TGI [2]: > 100 µM
TGI [3]: > 100 µM
TGI [4]: > 100 µM
TGI [5]: > 100 µM
TGI [6]: 80.7 µM
TGI [7]: 34.5 µM
TGI [8]: 44.6 µM
TGI [9]: 52.7 µM
TGI [10]: 87.5 µM
TGI [11]: > 100 µM
TGI [12]: 24 µM
TGI [13]: 27.6 µM
TGI [14]: 78.5 µM
TGI [16]: 40.2 µM
TGI [17]: 45.4 µM
TGI [53]: 73.7 µM
TGI [18]: > 100 µM
TGI [19]: 53.7 µM
TGI [20]: 82.9 µM
TGI [21]: > 100 µM
TGI [54]: > 100 µM
TGI [22]: 39 µM
TGI [23]: 52.7 µM
TGI [55]: 40.9 µM
TGI [24]: 30.6 µM
TGI [25]: > 100 µM
TGI [26]: 21.1 µM
TGI [27]: 19.8 µM
TGI [28]: 79.9 µM
TGI [29]: > 100 µM
TGI [30]: 65.3 µM
TGI [31]: 67 µM
TGI [32]: 58.2 µM
TGI [33]: > 100 µM
TGI [34]: 94.4 µM
TGI [35]: 40.2 µM
TGI [56]: 26.8 µM
TGI [36]: 77.6 µM
TGI [37]: > 100 µM
TGI [38]: 25.2 µM
TGI [39]: 53.2 µM
TGI [40]: 49.1 µM
TGI [41]: 43.9 µM
TGI [42]: > 100 µM
TGI [43]: 47.2 µM
TGI [44]: 33.3 µM
TGI [45]: 63.1 µM
TGI [59]: > 100 µM
TGI [46]: > 100 µM
TGI [47]: 80.3 µM
TGI [48]: > 100 µM
TGI [49]: 76.5 µM
TGI [50]: 30.2 µM
TGI [51]: 30.5 µM
TGI [52]: 41.9 µM
